Data set [1] is described as follows: Neutral Red vitality test using J774.A1 cells. It is filed as cell-based, murine. The settings on record: mouse; J774.A1 murine macrophage cells, 72 hours with substance; vitality reduced to 50% of untreated control. As to the method: Compatibility tests of the exemplary compounds were carried out using cultures of eukaryotic cells. Hepatocytes (HepG2) and murine macrophage cells (J774.A1) were used as indicator for organ-specific toxicity. The murine macrophage cell line used is a particularly sensitive indicator for toxic effects.
In each case 1.2×10^4 cells were incubated at 37° C. for 24 hours. Test substances were added at different concentrations, and the cells were incubated for another 72 hours. The cells were then treated with 50 μl of Neutral Red solution (Sigma, No. N 2889) for 2 hours, washed with PBS medium and denaturated using an ethanol/glacial acetic acid mixture.
The cultures were measured in an Elisa reader at 540 nm and 630 nm. The IC50 values were extrapolated and indicate at which concentration the vitality of the cells, measured by the uptake of Neutral Red, is reduced to 50%, compared to untreated control cells.

Another data set has as its system S. aureus 133. In words: Determination of the minimum inhibitory concentration (MIC), liquid dilution test. It is filed as cell-based. The settings on record: Staphylococcus aureus; S. aureus 133; overnight culture diluted 1:1000 with foetal calf serum; 37° C., 18-24 hours; lowest concentration without visible growth; read-out: MIC in FCS (S.aureus; μg/ml). As to the method:
The MIC was determined using the liquid dilution test. Overnight cultures of the test germs (S. aureus 133) in Isosensitest bouillon were diluted 1:1000 with foetal calf serum (FCS) or Isosensitest bouillon and incubated with dilutions of the test substances (successive dilutions of 1:2).
The cultures were incubated at 37° C. for 18-24 hours. In each case the lowest concentration of substance at which no visible bacterial growth took place, was defined as MIC.

The source of these data is patent US6617332B1, “Tan-1057 derivatives” (Bayer Aktiengesellschaft, priority 1998, dated 2003).

Where a name gives a salt, the structure may show the parent alone.

In data set [1], `CN(C(=O)C[C@@]1(N)C[C@H]1CCNC(=N)N)C1CNC(NC(N)=O)=NC1=O` (stereo partly shown) [Example 3, 5-{N-Methyl-N-2′-[1-amino-2-(2-guanidinoethyl)cyclopropyl]acetamino}-5,6-dihydro-2-ureido-4(1H)-pyrimidone Dihydrochloride] returned a half-inhibitory concentration (IC50) at 72 h of 40 µg/mL. Further, the minimum inhibitory concentration (MIC) with S. aureus 133 is 100 µg/mL.
The like results for `CN(C(=O)C[C@@H](N)CCCCN)C1CNC(NC(N)=O)=NC1=O` (stereo partly drawn) [Example 5, (3′S,5R,S)-5-[N-Methyl-N-(3′,7′-diaminoheptanoyl)amino]-5,6-dihydro-2-ureido-4(1H)-pyrimidone Dihydrochloride] were, in that order, 6 µg/mL and 0.1 µg/mL.
The like results for `CNC(=N)NCCC[C@H](N)CC(=O)N(C)C1CNC(NC(N)=O)=NC1=O` (stereo partly drawn) [Example 6, (3′S,5R,S)-5-{N-Methyl-N-[3′-amino-6′-(N′-methylguanidino)hexanoyl]amino}-5,6-dihydro-2-ureido-4(1H)-pyrinidone Dihydrochloride] were, in that order, 5.5 µg/mL and 0.8 µg/mL.
Regarding `N=C(N)NCCC[C@H](N)CC(=O)NC1CNC(NC(N)=O)=NC1=O` (stereo partly drawn) [Example 9, (3′R,5R,S)-5-[N-(3′-amino-6′-guanidinohexanoyl)amino]-5,6-dihydro-2-ureido-4(1H)-pyrimidone Dihydrochloride], the MIC with S. aureus 133 was found to be 1.6 µg/mL.
`CCN(C(=O)C[C@@H](N)CCCN)C1CNC(NC(N)=O)=NC1=O` (stereo partly drawn) [Example 10, (3′S,5R,S)-5-[N-Ethyl-N-(3′,6′-diaminohexanoyl)amino]-5,6-dihydro-2-ureido-4(1H)-pyrimidone Dihydrochloride]: the MIC in the data set on S. aureus 133 was 3.2 µg/mL.
As for `CN(C(=O)CC[C@@H](N)CCCN)C1CNC(NC(N)=O)=NC1=O` (stereo partly drawn) [Example 11, (4′S,5R,S)-5-[N-Methyl-N-(4′,7′-diaminoheptanoyl)amino]-5,6-dihydro-2-ureido-4(1H)-pyrimidone Dihydrochloride], the MIC in the data set with S. aureus 133 was 3.2 µg/mL.
Regarding `CN(C(=O)C[C@H](N)CCCN)C1CNC(NC(N)=O)=NC1=O` (stereo partly drawn) [Example 12, (3′R,5R,S)-5-[N-Methyl-N-(3′,6′-diaminohexanoyl)amino]-5,6-dihydro-2-ureido-4(1H)-pyrimidone Dihydrochloride], the MIC in the data set on S. aureus 133 stood at 6.3 µg/mL.
For the molecule `CN(C(=O)C[C@@H](N)CCC(N)=O)C1CNC(NC(N)=O)=NC1=O.Cl` (stereo partly drawn) [Example 13, (3′R,5R,S)-5-[N-Methyl-N-(3′-amino-5′-carbamoyl-pentanoyl)amino]-5,6-dihydro-2-ureido-4(1H)-pyrimidone Dihydrochloride], the minimum inhibitory concentration (MIC) in the data set on S. aureus 133 came out at 12.5 µg/mL.
The same measure, in the same setting: under `NCCC[C@H](N)CC(=O)NC1CNC(NC(N)=O)=NC1=O` (stereo partly drawn) [Example 14, (3′R,5R,S)-5-[N-(3′,6′-Diaminohexanoyl)amino]-5,6-dihydro-2-ureido-4(1H)-pyrimidone Dihydrochloride] stands 12.5 µg/mL; under `CCN(C(=O)C[C@@H](N)CCCNC(=N)N)C1CNC(NC(N)=O)=NC1=O` (stereo partly drawn) [Example 15, (3′S,5R,S)-5-[N-Ethyl-N-(3′-amino-6′-guanidinohexanoyl)amino]-5,6-dihydro-2-ureido-4(1H)-pyrimidone Dihydrochloride], 100 µg/mL; under `COC(=O)NCCC[C@H](N)CC(=O)N(C)C1CNC(NC(N)=O)=NC1=O.Cl` (stereo partly drawn) [Example 16, (3′S,5R,S)-5-[N-Methyl-N-(3′-amino-6′-methoxycarbonylaminohexanoyl)-amino]-5,6-dihydro-2-ureido-4(1H)-pyrimidone Hydrochloride], 100 µg/mL.
Regarding `CN(C(=O)CC(N)CCCCCN)C1CNC(NC(N)=O)=NC1=O` [Example 17, (3′R,S,5R,S)-5-[N-Methyl-N-(3′,8′-diaminooctanoyl)amino]-5,6-dihydro-2-ureido-4(1H)-pyrimidone Dihydrochloride], the MIC with S. aureus 133 amounted to 6.3 µg/mL.
As to `CN(C(=O)CC(N)CCC#N)C1CNC(NC(N)=O)=NC1=O.Cl` [Example 18, (3′R,S,5R,S)-5-[N-Methyl-N-(3′-amino-5′-cyanopentanoyl)amino]-5,6-dihydro-2-ureido-4(1H)-pyrimidone Hydrochloride], the minimum inhibitory concentration (MIC) in the data set with S. aureus 133 came out at 12.5 µg/mL.

As usually defined, the IC50 is the concentration that inhibits the measured activity by half. Lower therefore signals inhibition by little substance. What is called MIC is the smallest concentration in the dilution series that meets the test's criterion for growth inhibition.
